From patent US12390446B2 (RESEARCH TRIANGLE INSTITUTE, priority 2017, dated 2025)
Read-outs that look alike come from different tables or passages of the source. Each block holds one compound with its values, some of them ahead of it.

Experiments:
[1] = target: T1, NPFF1 receptor (human NPFFR1 in CHO-RD-HGA16 cells) (Homo sapiens, UniProt Q9GZQ6); experiment: Calcium mobilization functional Ke assay, NPFF1; type: cell-based; conditions: for Kb: read-out: NPFF1 Ke; for type of antagonism in curve-shift assays: standard incubation, competitive profile with longer incubations
T1 construct: expressed in transfected cells
T1 sequence (Q9GZQ6 whole entry): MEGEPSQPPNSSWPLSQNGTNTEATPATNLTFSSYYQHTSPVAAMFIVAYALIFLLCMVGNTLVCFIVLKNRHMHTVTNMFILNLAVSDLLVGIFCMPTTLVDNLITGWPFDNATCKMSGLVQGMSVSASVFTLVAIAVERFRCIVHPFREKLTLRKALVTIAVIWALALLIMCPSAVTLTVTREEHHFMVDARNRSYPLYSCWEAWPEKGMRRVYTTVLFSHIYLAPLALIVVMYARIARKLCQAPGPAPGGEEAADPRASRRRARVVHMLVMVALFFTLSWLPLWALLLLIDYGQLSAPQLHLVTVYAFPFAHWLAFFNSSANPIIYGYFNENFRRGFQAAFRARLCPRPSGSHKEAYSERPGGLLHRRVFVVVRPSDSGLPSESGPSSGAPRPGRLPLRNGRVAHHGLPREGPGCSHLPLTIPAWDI

[2] = target: T2, NPFF2 receptor (human NPFFR2 in CHO-RD-HGA16 cells) (Homo sapiens, UniProt Q9Y5X5); experiment: Calcium mobilization functional Ke assay, NPFF2; type: cell-based; conditions: for Kb: read-out: NPFF2 Ke
T2 construct: expressed in transfected cells
T2 sequence (Q9Y5X5 whole entry): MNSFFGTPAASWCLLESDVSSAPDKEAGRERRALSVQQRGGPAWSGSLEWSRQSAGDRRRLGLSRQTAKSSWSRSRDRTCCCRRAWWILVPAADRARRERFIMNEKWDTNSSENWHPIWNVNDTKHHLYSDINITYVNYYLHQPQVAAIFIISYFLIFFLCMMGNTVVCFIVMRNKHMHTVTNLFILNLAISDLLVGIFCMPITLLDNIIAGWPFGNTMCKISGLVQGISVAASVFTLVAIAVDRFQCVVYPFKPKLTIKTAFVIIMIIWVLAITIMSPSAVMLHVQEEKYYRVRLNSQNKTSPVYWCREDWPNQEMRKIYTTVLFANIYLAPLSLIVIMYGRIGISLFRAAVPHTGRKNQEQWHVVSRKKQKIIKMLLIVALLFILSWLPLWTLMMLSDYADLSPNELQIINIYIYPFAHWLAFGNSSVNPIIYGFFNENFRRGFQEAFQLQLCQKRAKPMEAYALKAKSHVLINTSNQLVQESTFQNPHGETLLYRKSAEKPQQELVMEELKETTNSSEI

[3] = Table 1, mean ± SEM, apparent dissociation constant vs NPFF
[4] = Table 2, 4-(4-methylthio)benzylamino series, mean ± SEM
[5] = Table 1, footnote c: pre-incubation of antagonist and test compound 45 min or 1 hr

Kb [1, 3]: 1820 nM
NPFF1 Ke ([1]; calcium mobilization assay): 1,820 nM
SMILES: COc1ccc(CN[C@H]2C[C@@H](C(=O)NCCc3ccncc3)N(Cc3ccccc3Cl)C2)cc1 [Compound 37, (2S,4S)-1-[(2-Chlorophenyl)methyl]-4-{[(4-methoxyphenyl)methyl]amino}-N-[2-(pyridin-4-yl)ethyl]pyrrolidine-2-carboxamide]

Kb ([1]; Table 4, mean ± SEM): 3830 nM
Kb ([2]; Table 4, mean ± SEM): > 10000 nM
SMILES: COc1ccc(CN[C@H]2C[C@@H](C(=O)NCCc3ccccc3)N(Cc3ccc(C#N)cc3)C2)cc1 [Compound 86, (2S,4S)-1-[(4-Cyanophenyl)methyl]-4-{[(4-methoxyphenyl)methyl]amino}-N-(2-phenylethyl)pyrrolidine-2-carboxamide]

SMILES: COc1ccc(CN[C@H]2C[C@@H](C(=O)NCCc3ccccc3)N(Cc3cccc(Cl)c3)C2)cc1 [Compound 77, (2S,4S)-1-[(3-Chlorophenyl)methyl]-4-{[(4-methoxyphenyl)methyl]amino}-N-(2-phenylethyl)pyrrolidine-2-carboxamide]
Kb ([1]; Table 4, mean ± SEM): 580 ± 50 nM
preference / selectivity for NPFF1 over NPFF2 ([1]; from calcium mobilization Ke values): > 10 fold
Kb ([2]; Table 4, mean ± SEM): 4100 nM

Kb [1, 3]: 1880 nM
SMILES: COc1ccc(CN[C@H]2C[C@@H](C(=O)NCCc3ccc(S(C)(=O)=O)cc3)N(Cc3ccccc3Cl)C2)cc1 [Compound 39, (2S,4S)-1-[(2-Chlorophenyl)methyl]-N-[2-(4-methanesulfonylphenyl)ethyl]-4-{[(4-methoxyphenyl)methyl]amino}pyrrolidine-2-carboxamide]

Kb [1, 4]: 1080 nM
Kb [2, 4]: 5600 nM
SMILES: CCNC(=O)[C@@H]1C[C@H](NCc2ccc(SC)cc2)CN1Cc1ccccc1Cl [Compound 43, (2S,4S)-1-[(2-Chlorophenyl)methyl]-N-ethyl-4-{[(4-(methylthio)phenyl)methyl]amino}pyrrolidine-2-carboxamide]

Kb ([1]; Table 3, mean ± SEM): 1230 nM
Kb ([2]; Table 3, mean ± SEM): 1400 nM
SMILES: O=C(NCCc1ccc([N+](=O)[O-])cc1)[C@@H]1C[C@H](NCc2ccccc2)CN1Cc1ccccc1Cl [Compound 56, (2S,4S)-4-(Benzylamino)-1-[(2-chlorophenyl)methyl]-N-[2-(4-nitrophenyl)ethyl]pyrrolidine-2-carboxamide]

Kb [1, 4]: 360 ± 50 nM
Kb ([1]; calcium mobilization assay): 360 nM
Kb ([2]; Table 2, footnote c: pre-incubation 1 hr): 970 ± 30 nM
SMILES: CCCCCNC(=O)[C@@H]1C[C@H](NCc2ccc(SC)cc2)CN1Cc1ccccc1Cl [Compound 44, (2S,4S)-1-[(2-Chlorophenyl)methyl]-4-{[(4-(methylthio)phenyl)methyl]amino}-N-pentylpyrrolidine-2-carboxamide]

NPFF1 antagonist activity ([1]; at 10 μM): inactive
NPFF2 antagonist activity ([2]; at 10 μM): inactive
SMILES: CNC(=O)[C@@H]1C[C@H](NCc2ccc(OC)cc2)CN1Cc1ccccc1Cl [Compound 10, (2S,4S)-1-[(2-Chlorophenyl)methyl]-4-{[(4-methoxyphenyl)methyl]amino}-N-methylpyrrolidine-2-carboxamide]

Kb [1, 5]: > 10000 nM
SMILES: CCCCCCCCCCNC(=O)[C@@H]1C[C@H](NCc2ccc(OC)cc2)CN1Cc1ccccc1Cl [Compound 19, (2S,4S)-1-[(2-Chlorophenyl)methyl]-N-decyl-4-{[(4-methoxyphenyl)methyl]amino}pyrrolidine-2-carboxamide]

Kb [1, 5]: 1330 nM
NPFF1 Ke ([1]; calcium mobilization assay): 1,330 nM
type of antagonism in curve-shift assays [1]: insurmountable antagonism
Kb [2, 5]: 2080 nM
SMILES: COc1ccc(CN[C@H]2C[C@@H](C(=O)N3CCN(c4ccccc4)CC3)N(Cc3ccccc3Cl)C2)cc1 [Compound 42, (3S,5S)-1-[(2-Chlorophenyl)methyl]-N-[(4-methoxyphenyl)methyl]-5-(4-phenylpiperazine-1-carbonyl)pyrrolidin-3-amine]

Kb ([1]; Table 3, mean ± SEM): 6120 nM
Kb ([2]; Table 3, mean ± SEM): > 10000 nM
SMILES: CCCCN[C@H]1C[C@@H](C(=O)NCCc2ccc([N+](=O)[O-])cc2)N(Cc2ccccc2Cl)C1 [Compound 53, (2S,4S)-4-(Butylamino)-1-[(2-chlorophenyl)methyl]-N-[2-(4-nitrophenyl)ethyl]pyrrolidine-2-carboxamide]

Kb [1, 3]: 1960 nM
SMILES: COc1ccc(CN[C@H]2C[C@@H](C(=O)NCCN3CCOCC3)N(Cc3ccccc3Cl)C2)cc1 [Compound 20, (2S,4S)-1-[(2-Chlorophenyl)methyl]-4-{[(4-methoxyphenyl)methyl]amino}-N-[2-(morpholin-4-yl)ethyl]pyrrolidine-2-carboxamide]

Kb ([1]; Table 4, mean ± SEM): 1860 nM
Kb ([2]; Table 4, mean ± SEM): > 10000 nM
SMILES: COc1ccc(CN[C@H]2C[C@@H](C(=O)NCCc3ccccc3)N(Cc3ccc4c(c3)OCO4)C2)cc1 [Compound 88, (2S,4S)-1-(2H-1,3-Benzodioxol-5-ylmethyl)-4-{[(4-methoxyphenyl)methyl]amino}-N-(2-phenylethyl)pyrrolidine-2-carboxamide]

Kb ([1]; Table 4, mean ± SEM): 490 ± 70 nM
Kb ([2]; Table 4, mean ± SEM): 3940 nM
SMILES: COc1ccc(CN[C@H]2C[C@@H](C(=O)NCCc3ccccc3)N(Cc3ccccc3C)C2)cc1 [Compound 82, (2S,4S)-4-{[(4-Methoxyphenyl)methyl]amino}-1-[(2-methylphenyl)methyl]-N-(2-phenylethyl)pyrrolidine-2-carboxamide]

Kb [1]: 1320 nM
Kb [2]: > 10000 nM
SMILES: COc1ccc(CN[C@H]2C[C@@H](C(=O)NCCc3ccccc3)N(Cc3ccc(C)cc3)C2)cc1 [Compound 83, (2S,4S)-4-{[(4-Methoxyphenyl)methyl]amino}-1-[(4-methylphenyl)methyl]-N-(2-phenylethyl)pyrrolidine-2-carboxamide]

Kb [1, 3]: 1240 nM
SMILES: CCCCNC(=O)[C@@H]1C[C@H](NCc2ccc(OC)cc2)CN1Cc1ccccc1Cl [Compound 13, (2S,4S)—N-Butyl-1-[(2-chlorophenyl)methyl]-4-{[(4-methoxyphenyl)methyl]amino}pyrrolidine-2-carboxamide]

Kb ([1]; Table 3, mean ± SEM): 1920 nM
Kb ([2]; Table 3, mean ± SEM): 3150 nM
SMILES: COc1ccc(CN[C@H]2C[C@@H](C(=O)NCCc3ccc([N+](=O)[O-])cc3)N(Cc3ccccc3Cl)C2)cc1OC [Compound 60, (2S,4S)-1-[(2-Chlorophenyl)methyl]-4-{[(3,4-dimethoxyphenyl)methyl]amino}-N-[2-(4-nitrophenyl)ethyl]pyrrolidine-2-carboxamide]

Kb ([1]; Table 3, mean ± SEM): 5160 nM
Kb ([2]; Table 3, mean ± SEM): > 10000 nM
SMILES: CCCN[C@H]1C[C@@H](C(=O)NCCc2ccc([N+](=O)[O-])cc2)N(Cc2ccccc2Cl)C1 [Compound 52]

Kb ([1]; Table 4, mean ± SEM): 1450 nM
Kb ([2]; Table 4, mean ± SEM): 7100 nM
SMILES: CCCCCCN1C[C@@H](NCc2ccc(OC)cc2)C[C@H]1C(=O)NCCc1ccccc1 [Compound 74, (2S,4S)-1-Hexyl-4-{[(4-methoxyphenyl)methyl]amino}-N-(2-phenylethyl)pyrrolidine-2-carboxamide]

SMILES: O=C(NCCc1ccc([N+](=O)[O-])cc1)[C@@H]1C[C@H](NCc2ccc(O)cc2)CN1Cc1ccccc1Cl [Compound 61, (2S,4S)-1-[(2-Chlorophenyl)methyl]-4-{[(4-hydroxyphenyl)methyl]amino}-N-[2-(4-nitrophenyl)ethyl]pyrrolidine-2-carboxamide]
Kb ([1]; Table 3, mean ± SEM): 4790 nM
Kb ([2]; Table 3, mean ± SEM): 6370 nM

Kb ([1]; Table 4, mean ± SEM): 3510 nM
Kb ([2]; Table 4, mean ± SEM): > 10000 nM
SMILES: COc1ccc(CN[C@H]2C[C@@H](C(=O)NCCc3ccccc3)N(Cc3ccc(N(C)C)cc3)C2)cc1 [Compound 85, (2S,4S)-1-{[4-(Dimethylamino)phenyl]methyl}-4-{[(4-methoxyphenyl)methyl]amino}-N-(2-phenylethyl)pyrrolidine-2-carboxamide]

Kb ([1]; Table 3, mean ± SEM): 2320 nM
Kb ([2]; Table 3, mean ± SEM): 4470 nM
SMILES: CCCCCCN[C@H]1C[C@@H](C(=O)NCCc2ccc([N+](=O)[O-])cc2)N(Cc2ccccc2Cl)C1 [Compound 55, (2S,4S)-1-[(2-Chlorophenyl)methyl]-4-(hexylamino)-N-[2-(4-nitrophenyl)ethyl]pyrrolidine-2-carboxamide]

Kb ([1]; Table 4, mean ± SEM): 1230 nM
Kb ([2]; Table 4, mean ± SEM): 5110 nM
SMILES: COc1ccc(CN[C@H]2C[C@@H](C(=O)NCCc3ccccc3)N(Cc3ccccc3OC)C2)cc1 [Compound 79, (2S,4S)-1-[(2-Methoxyphenyl)methyl]-4-{[(4-methoxyphenyl)methyl]amino}-N-(2-phenylethyl)pyrrolidine-2-carboxamide]

SMILES: COc1ccc(CN[C@H]2C[C@@H](C(=O)NCCc3ccccc3)N(CC3CCCCC3)C2)cc1 [Compound 75, (2S,4S)-1-(Cyclohexylmethyl)-4-{[(4-methoxyphenyl)methyl]amino}-N-(2-phenylethyl) pyrrolidine-2-carboxamide]
NPFF1 Ke ([1]; Table 4, mean ± SEM): 650 ± 70 nM
NPFF2 Ke ([2]; Table 4, mean ± SEM): 3,640 ± 830 nM

Kb [1, 5]: 780 ± 80 nM
type of antagonism in curve-shift assays [1]: insurmountable antagonism
Kb [2, 5]: 2010 nM
SMILES: COc1ccc(CN[C@H]2C[C@@H](C(=O)NCc3ccccc3)N(Cc3ccccc3Cl)C2)cc1 [Compound 23, (2S,4S)—N-Benzyl-1-[(2-chlorophenyl)methyl]-4-{[(4-methoxyphenyl)methyl]amino}pyrrolidine-2-carboxamide]

Kb ([1]; Table 3, mean ± SEM): 2060 nM
Kb ([2]; Table 3, mean ± SEM): 6380 nM
SMILES: O=C(NCCc1ccc([N+](=O)[O-])cc1)[C@@H]1C[C@H](NCc2ccc(C(F)(F)F)cc2)CN1Cc1ccccc1Cl [Compound 62, (2S,4S)-1-[(2-Chlorophenyl)methyl]-N-[2-(4-nitrophenyl)ethyl]-4-({[4-(trifluoromethyl)phenyl]methyl}amino)pyrrolidine-2-carboxamide]

Kb [1, 3]: 1670 nM
NPFF1 Ke ([1]; calcium mobilization assay): 1,670 nM
SMILES: COc1ccc(CN[C@H]2C[C@@H](C(=O)NCCc3ccc(C(F)(F)F)cc3)N(Cc3ccccc3Cl)C2)cc1 [Compound 36, (2S,4S)-1-[(2-Chlorophenyl)methyl]-4-{[(4-methoxyphenyl)methyl]amino}-N-{2-[4-(trifluoromethyl)phenyl]ethyl}pyrrolidine-2-carboxamide]
